Several values for one entry are separate records, joined by “and”; a condition that tells them apart may be missing. Identical values can stand only once.
What was measured:
[1] = tested on: encephalomyocarditis virus (EMC); assay type: cell-based
bacteriophage M13 = assay type: cell-based
[2] = tested on: cell-free vesicular stomatitis virus (VSV); assay type: cell-based
platelets = experiment: Platelet aggregation in response to collagen after treatment of platelet concentrate; assay type: cell-based; details: for Aggregation Response % Control / Agqregation Response % control: 25 μg/ml AMT; for % Untreated Control - Extent of Aggregation Response to Collagen, treated / % Untreated Control - Rate of Aggregation Response to Collagen, treated: 25 μg/ml AMT and 90 minutes of UVA in presence of flavonoid; for % Untreated Control - Extent of Aggregation Response to Collagen, treated / % Untreated Control - Rate of Aggregation Response to Collagen, treated / % Untreated Control - Extent of Aggregation Response to Collagen, untreated / % Untreated Control - Rate of Aggregation Response to Collagen, untreated: overnight storage; for % Untreated Control - Extent of Aggregation Response to Collagen, untreated / % Untreated Control - Rate of Aggregation Response to Collagen, untreated: flavonoid present, no AMT/UVA treatment
cell-associated VSV = assay type: cell-based, vesicular stomatitis virus
RBCCs = experiment: Extracellular (plasma) potassium of stored RBCCs; details: RBCC, 6.5 μM AlPcS4 + 44 J/cm^2 visible light + 4 mM GSH, 2 days
[3] = platelet conc., 7.5 mW/cm^2 UVA 30 min, quencher 2 mM
[4] = platelet conc., 7.5 mW/cm^2 UVA 30 min, quencher 4 mM
[5] = platelet conc., 7.5 mW/cm^2 UVA 30 min, quencher 10 mM
[6] = platelet conc., 7.5 mW/cm^2 UVA 60 min, quencher 2 mM
[7] = platelet conc., 7.5 mW/cm^2 UVA 60 min, quencher 4 mM
[8] = platelet conc., 7.5 mW/cm^2 UVA 90 min, quencher 2 mM
[9] = platelet conc., 7.5 mW/cm^2 UVA 90 min, quencher 4 mM
[10] = platelet conc., 7.5 mW/cm^2 UVA 30 min, quencher 50 mM
[11] = platelet conc., 7.5 mW/cm^2 UVA 60 min, quencher 10 mM
[12] = platelet conc., 7.5 mW/cm^2 UVA 60 min, quencher 50 mM
[13] = platelet conc., 11 mW/cm^2 UVA 30 min, quencher 10 mM
[14] = platelet conc., 11 mW/cm^2 UVA 30 min, quencher 2 mM
[15] = platelet conc., 11 mW/cm^2 UVA 60 min, quencher 2 mM
[16] = platelet conc., 11 mW/cm^2 UVA 90 min, quencher 2 mM

O=C1O[C@H]([C@@H](O)CO)C(O)=C1O [Ascorbate, ascorbate]
Virus Kill (log10) EMC [1]: ≧7.7 log10 | Virus Kill (log10) M13 (bacteriophage M13): 4.7 log10 | Virus Kill (log10) VSV [2]: ≧6.5 log10

N[C@@H](CCC(=O)N[C@@H](CS)C(=O)NCC(=O)O)C(=O)O [Glutathione, glutathione]
Virus Kill (log10) M13 (bacteriophage M13): 4.4 log10 | Aggregation Response % Control (platelets; [3]): 80 % Control | Aggregation Response % Control (platelets; [4]): 80 % Control | Aggregation Response % Control (platelets; [5]): 75 % Control | Aggregation Response % Control (platelets; [6]): 60 % Control | Aggregation Response % Control (platelets; [7]): 55 % Control | Aggregation Response % Control (platelets; [8]): 40 % Control | Aggregation Response % Control (platelets; [9]): 25 % Control | Virus Inactivation (log10) Cell-Free VSV [2]: ≧6.0 log10

OCC(O)CO [Glycerol, glycerol]
Virus Kill (log10) M13 (bacteriophage M13): 6.6 log10 | Aggregation Response % Control (platelets; [3]): 90 % Control | Aggregation Response % Control (platelets; [4]): 95 % Control | Aggregation Response % Control (platelets; [5]): 80 % Control | Aggregation Response % Control (platelets; [10]): 85 % Control | Aggregation Response % Control (platelets; [6]): 50 % Control | Aggregation Response % Control (platelets; [7]): 55 % Control | Aggregation Response % Control (platelets; [11]): 50 % Control | Aggregation Response % Control (platelets; [12]): 50 % Control | Aggregation Response % Control (platelets; [9]): 35 % Control

N[C@@H](Cc1c[nH]cn1)C(=O)O [Histidine, histidine]
Virus Kill (log10) M13 (bacteriophage M13): 4.0 log10 | Agqregation Response % control (platelets; platelet conc., 11 mW/cm^2 UVA 30 min, quencher 5 mM): 75 % control | Agqregation Response % control (platelets; [13]): 65 % control | Agqregation Response % control (platelets; platelet conc., 11 mW/cm^2 UVA 60 min, quencher 5 mM): 55 % control | Agqregation Response % control (platelets; platelet conc., 11 mW/cm^2 UVA 90 min, quencher 5 mM): 35 % control | Virus Kill (log10) Cell-free VSV [2]: 5.1 log10 and 4.8 log10

CN(C)c1ccc2nc3ccc(=[N+](C)C)cc-3sc2c1 [M8, methylene blue]
LOG10 VIRUS KILL VSV [2]: ≧5 LOG10

OC[C@@H](O)[C@@H](O)[C@H](O)[C@H](O)CO [Mannitol, mannitol]
Virus Kill (log10) M13 (bacteriophage M13): 6.6 log10 | Aggregation Response % Control (platelets; [3]): 95 % Control | Aggregation Response % Control (platelets; [4]): 95 % Control | Aggregation Response % Control (platelets; [5]): 91 % Control | Aggregation Response % Control (platelets; [10]): 85 % Control | Aggregation Response % Control (platelets; [6]): 60 % Control | Aggregation Response % Control (platelets; [7]): 58 % Control | Aggregation Response % Control (platelets; [11]): 56 % Control | Aggregation Response % Control (platelets; [12]): 55 % Control | Aggregation Response % Control (platelets; [8]): 32 % Control | Aggregation Response % Control (platelets; platelet conc., 7.5 mW/cm^2 UVA 90 min, quencher 50 mM): 30 % Control | aggregation response to collagen (platelets; platelet conc., 100 μg/ml AMT, 90 min UVA, 2 mM mannitol): no response at all

N[C@@H](Cc1c[nH]c2ccccc12)C(=O)O [Tryptophan, tryptophan]
Agqregation Response % control (platelets; [14]): 70 % control | Agqregation Response % control (platelets; platelet conc., 11 mW/cm^2 UVA 30 min, quencher 4 mM): 60 % control | Agqregation Response % control (platelets; [13]): 45 % control | Agqregation Response % control (platelets; [15]): 50 % control | Agqregation Response % control (platelets; platelet conc., 11 mW/cm^2 UVA 60 min, quencher 4 mM): 45 % control | Agqregation Response % control (platelets; platelet conc., 11 mW/cm^2 UVA 60 min, quencher 10 mM): 20 % control | Agqregation Response % control (platelets; [16]): 30 % control | Agqregation Response % control (platelets; platelet conc., 11 mW/cm^2 UVA 90 min, quencher 4 mM): 20 % control | Agqregation Response % control (platelets; platelet conc., 11 mW/cm^2 UVA 90 min, quencher 10 mM): 0 % control

O=c1cc(-c2ccccc2)oc2cc(O)cc(O)c12 [chrysin]
% Untreated Control - Extent of Aggregation Response to Collagen, treated (platelets): 90 % Untreated Control | % Untreated Control - Rate of Aggregation Response to Collagen, treated (platelets): 85 % Untreated Control | % Untreated Control - Extent of Aggregation Response to Collagen, untreated (platelets): 100/100 % Untreated Control | % Untreated Control - Rate of Aggregation Response to Collagen, untreated (platelets): 100/100 % Untreated Control

COc1ccc([C@@H]2CC(=O)c3c(O)cc(O[C@@H]4O[C@H](CO[C@@H]5O[C@@H](C)[C@H](O)[C@@H](O)[C@H]5O)[C@@H](O)[C@H](O)[C@H]4O)cc3O2)cc1O [hesperidin]
% Untreated Control - Extent of Aggregation Response to Collagen, treated (platelets): 100 % Untreated Control | % Untreated Control - Rate of Aggregation Response to Collagen, treated (platelets): 86 % Untreated Control | % Untreated Control - Extent of Aggregation Response to Collagen, untreated (platelets): 98 % Untreated Control | % Untreated Control - Rate of Aggregation Response to Collagen, untreated (platelets): 90 % Untreated Control

C[C@@H]1O[C@@H](O[C@H]2[C@H](Oc3cc(O)c4c(c3)O[C@H](c3ccc(O)cc3)CC4=O)O[C@H](CO)[C@@H](O)[C@@H]2O)[C@H](O)[C@H](O)[C@H]1O [naringin]
% Untreated Control - Extent of Aggregation Response to Collagen, treated (platelets): 78 % Untreated Control | % Untreated Control - Rate of Aggregation Response to Collagen, treated (platelets): 61 % Untreated Control | % Untreated Control - Extent of Aggregation Response to Collagen, untreated (platelets): 90 % Untreated Control | % Untreated Control - Rate of Aggregation Response to Collagen, untreated (platelets): 83 % Untreated Control

O=c1c(O)c(-c2ccc(O)c(O)c2)oc2cc(O)cc(O)c12 [quercetin]
Virus Kill (log10) EMC [1]: ≧7.7 log10 | Virus Kill (log10) M13 (bacteriophage M13): 5.0 log10 | % Untreated Control - Extent of Aggregation Response to Collagen, treated (platelets): 98/98 % Untreated Control | % Untreated Control - Rate of Aggregation Response to Collagen, treated (platelets): 98/98 % Untreated Control | % Untreated Control - Extent of Aggregation Response to Collagen, untreated (platelets): 100/100 % Untreated Control | % Untreated Control - Rate of Aggregation Response to Collagen, untreated (platelets): 100/100 % Untreated Control | inactivation of cell-associated VSV (cell-associated VSV): ~6 log10 | Virus Kill (log10) VSV [2]: ≧6.5 log10

Cc1c(C)c2c(c(C)c1OP(=O)(O)O)CC[C@@](C)(CCC[C@H](C)CCC[C@H](C)CCCC(C)C)O2 [α-tocopherol phosphate]
Agqregation Response % control (platelets; platelet conc., 11 mW/cm^2 UVA 30 min, quencher 0.5 mM): 76 % control | Agqregation Response % control (platelets; platelet conc., 11 mW/cm^2 UVA 30 min, quencher 1.0 mM): 75 % control | Agqregation Response % control (platelets; [14]): 70 % control | Agqregation Response % control (platelets; platelet conc., 11 mW/cm^2 UVA 60 min, quencher 0.5 mM): 55 % control | Agqregation Response % control (platelets; platelet conc., 11 mW/cm^2 UVA 60 min, quencher 1.0 mM): 60 % control | Agqregation Response % control (platelets; [15]): 50 % control | Agqregation Response % control (platelets; platelet conc., 11 mW/cm^2 UVA 90 min, quencher 0.5 mM): 35 % control | Agqregation Response % control (platelets; platelet conc., 11 mW/cm^2 UVA 90 min, quencher 1.0 mM): 40 % control | Agqregation Response % control (platelets; [16]): 30 % control

Superoxide Dismutase
Virus Kill (log10) M13 (bacteriophage M13): 3.9 log10 | Aggregation Response % Control (platelets; platelet conc., 7.5 mW/cm^2 UVA 30 min, quencher 20 μg/ml): 85 % Control | Aggregation Response % Control (platelets; platelet conc., 7.5 mW/cm^2 UVA 30 min, quencher 100 μg/ml): 75 % Control | Aggregation Response % Control (platelets; platelet conc., 7.5 mW/cm^2 UVA 60 min, quencher 20 μg/ml): 50 % Control | Aggregation Response % Control (platelets; platelet conc., 7.5 mW/cm^2 UVA 60 min, quencher 100 μg/ml): 45 % Control | Aggregation Response % Control (platelets; platelet conc., 7.5 mW/cm^2 UVA 90 min, quencher 20 μg/ml): 30 % Control | Virus Inactivation (log10) Cell-Free VSV [2]: ≧6.0 log10

aluminum phthalocyanine tetrasulfonate [AlPcS4]
plasma K+ (RBCCs; with γ-irradiation 25 Gy, no rutin): 75 mM | plasma K+ (RBCCs; without γ-irradiation): 60 mM

sodium carpryl N-acetyl tryptophan [SCNAT]
Virus Kill (log10) M13 (bacteriophage M13): 1.6 log10

Source: patent US6548242B2, “Process for the sterilization of biological compositions and the product thereby” (priority 1990, dated 2003)
